PubChem BioAssay AID248 (DTP/NCI, 2004)
Where “and” joins values, the source holds several entries; their conditions need not be identical. Equal values may be shown once. Toxic doses and inconclusive results are not listed. Rule as the data show it: active = T/C of 150% or more; inactive = T/C below 125%.

Tested on: L1210 leukemia ip in BDF1 mice, survival T/C
Test: NCI In Vivo Anticancer Drug Screen. Data for tumor model L1210 Leukemia (intraperitoneal) in B6D2F1 (BDF1) mice
Settings: endpoint: mean survival time, higher = longer survival
Outline: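 Each compound was tested against a transplantable tumor grown in mice. The endpoint was survival, with treated animals benchmarked against vehicle controls as a simple ratio.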

[1] = dose: 100.0 mg/kg/injection, schedule: Q04DX002 (ip), vehicle: Klucel (hydroxypropylcellulose) (HPC)
[2] = dose: 200.0 mg/kg/injection, schedule: Q04DX002 (ip), vehicle: Klucel (hydroxypropylcellulose) (HPC)
[3] = dose: 400.0 mg/kg/injection, schedule: Q04DX002 (ip), vehicle: Klucel (hydroxypropylcellulose) (HPC)
[4] = dose: 100.0 mg/kg/injection, schedule: Q01DX009 (ip), vehicle: Klucel (hydroxypropylcellulose) (HPC)
[5] = dose: 200.0 mg/kg/injection, schedule: Q01DX009 (ip), vehicle: Klucel (hydroxypropylcellulose) (HPC)
[6] = dose: 400.0 mg/kg/injection, schedule: Q01DX009 (ip), vehicle: Klucel (hydroxypropylcellulose) (HPC)
[7] = dose: 100.0 mg/kg/injection, schedule: Q01DX001 (ip), vehicle: Klucel (hydroxypropylcellulose) (HPC)
[8] = dose: 200.0 mg/kg/injection, schedule: Q01DX001 (ip), vehicle: Klucel (hydroxypropylcellulose) (HPC)
[9] = dose: 400.0 mg/kg/injection, schedule: Q01DX001 (ip), vehicle: Klucel (hydroxypropylcellulose) (HPC)
[10] = dose: 100.0 mg/kg/injection, schedule: Q04DX003 (ip), vehicle: other
[11] = dose: 200.0 mg/kg/injection, schedule: Q04DX003 (ip), vehicle: other
[12] = dose: 400.0 mg/kg/injection, schedule: Q04DX003 (ip), vehicle: other
[13] = dose: 100.0 mg/kg/injection, schedule: Q01DX001 (ip), vehicle: carboxymethylcellulose (CMC)
[14] = dose: 200.0 mg/kg/injection, schedule: Q01DX001 (ip), vehicle: carboxymethylcellulose (CMC)
[15] = dose: 400.0 mg/kg/injection, schedule: Q01DX001 (ip), vehicle: carboxymethylcellulose (CMC)

Measured: T/C

Cc1cc(Cl)ccc1OC(=O)Nc1cccc2ccccc12
inactive: dose: 50.0 mg/kg/injection, schedule: Q01DX009 (ip), vehicle: carboxymethylcellulose (CMC) 97 % of control and 101 % of control | dose: 50.0 mg/kg/injection, schedule: Q04DX003 (ip), vehicle: carboxymethylcellulose (CMC) 103 % of control | dose: 100.0 mg/kg/injection, schedule: Q01DX009 (ip), vehicle: carboxymethylcellulose (CMC) 102 % of control and 104 % of control | [1] 101 % of control | dose: 100.0 mg/kg/injection, schedule: Q04DX002 (ip), vehicle: carboxymethylcellulose (CMC) 98 % of control and 91 % of control | dose: 100.0 mg/kg/injection, schedule: Q04DX003 (ip), vehicle: carboxymethylcellulose (CMC) 100 % of control | dose: 200.0 mg/kg/injection, schedule: Q01DX009 (ip), vehicle: carboxymethylcellulose (CMC) 94 % of control and 92 % of control | [2] 112 % of control | dose: 200.0 mg/kg/injection, schedule: Q04DX002 (ip), vehicle: carboxymethylcellulose (CMC) 98 % of control and 100 % of control | dose: 200.0 mg/kg/injection, schedule: Q04DX003 (ip), vehicle: carboxymethylcellulose (CMC) 95 % of control | [3] 104 % of control | dose: 400.0 mg/kg/injection, schedule: Q04DX002 (ip), vehicle: carboxymethylcellulose (CMC) 104 % of control

C=C1C(=O)OC2CCCCC3OC3C12 (configuration not stated)
inactive: dose: 100.0 mg/kg/injection, schedule: Q01DX001 (ip), vehicle: saline with Tween-80 102 % of control

Cc1ccc(NC(=O)COc2ccc(Cl)cc2)c([N+](=O)[O-])c1
inactive: [4] 101 % of control | dose: 100.0 mg/kg/injection, schedule: Q04DX003 (ip), vehicle: Klucel (hydroxypropylcellulose) (HPC) 88 % of control | [5] 101 % of control | dose: 200.0 mg/kg/injection, schedule: Q04DX003 (ip), vehicle: Klucel (hydroxypropylcellulose) (HPC) 90 % of control | [6] 91 % of control | dose: 400.0 mg/kg/injection, schedule: Q04DX003 (ip), vehicle: Klucel (hydroxypropylcellulose) (HPC) 88 % of control

CCc1ccc(/C(C#N)=C/c2ccc(N(C)C)cc2)cc1
inactive: dose: 25.0 mg/kg/injection, schedule: Q01DX009 (ip), vehicle: Klucel (hydroxypropylcellulose) (HPC) 100 % of control | dose: 50.0 mg/kg/injection, schedule: Q01DX009 (ip), vehicle: Klucel (hydroxypropylcellulose) (HPC) 91 % of control | [4] 96 % of control and 90 % of control

NC(=O)N/N=C1/CCSc2ccc3c(c21)CCCC3
inactive: [7] 102 % of control | [4] 106 % of control | [8] 93 % of control | [5] 104 % of control | [9] 94 % of control | [6] 101 % of control

CCOC(=O)C1CC2(SCCS2)C(C(=O)O)CC12SCCS2 (configuration not stated)
inactive: [10] 103 % of control | [11] 92 % of control | [12] 97 % of control

S=C(NNc1ccccc1)Nc1ccccc1
inactive: [7] 93 % of control | [8] 103 % of control | [9] 95 % of control

CSc1ccc(NC(N)=O)cc1
inactive: [1] 103 % of control | [2] 120 % of control | [3] 95 % of control

COC(=O)c1cc(C)cc(N(c2ccccc2[N+](=O)[O-])S(=O)(=O)c2ccc(C)cc2)c1C
inactive: [13] 96 % of control | [14] 104 % of control | [15] 98 % of control

O=C(O)CN1C(=O)CNC12CCCC2
inactive: dose: 100.0 mg/kg/injection, schedule: Q01DX001 (ip), vehicle: saline 100 % of control | dose: 200.0 mg/kg/injection, schedule: Q01DX001 (ip), vehicle: saline 108 % of control | dose: 400.0 mg/kg/injection, schedule: Q01DX001 (ip), vehicle: saline 93 % of control

C#CCN(Cc1ccccc1)C(=O)Nc1cccc(Cl)c1
inactive: [10] 106 % of control | [11] 98 % of control | [12] 96 % of control

O=C(Nc1ccc(Cl)c(Cl)c1)OCCN(c1ccccc1)c1ccccc1
inactive: [13] 88 % of control | [14] 97 % of control | [15] 92 % of control

CCOP(=O)(/C=C/c1ccccc1)OCC
inactive: dose: 100.0 mg/kg/injection, schedule: Q04DX003 (ip), vehicle: saline 109 % of control | dose: 200.0 mg/kg/injection, schedule: Q04DX003 (ip), vehicle: saline 98 % of control | dose: 400.0 mg/kg/injection, schedule: Q04DX003 (ip), vehicle: saline 87 % of control
